What was measured:
human factor XIa = human factor XIa (Homo sapiens, UniProt P03951); experiment: Factor XIa Assay; format: biochemical; conditions: human factor XIa 0.04 nM, substrate GPR-AFC, 30 min pre-incubation, 25° C., pH 7.4; read-out: FXIa IC50
Procedure: (§1) The effectiveness of a compound of the present invention as an inhibitor of Coagulation factor XIa can be determined using a relevant purified serine protease, and an appropriate synthetic substrate. The rate of hydrolysis of the chromogenic or fluorogenic substrate by the relevant serine protease was measured both in the absence and presence of compounds of the present invention. Assays were conducted at rt or at 37° C. […] A decrease in the rate of fluorescence change in the presence of inhibitor is indicative of enzyme inhibition. Such methods are known to one skilled in the art. The results of this assay are expressed as the half-maximal inhibitory concentrations (IC50), or the inhibitory constant, Ki.
Compounds were pre-incubated for 30 min at 25° C. with human (0.04 nM) factor XIa in 50 mM HEPES buffer with 150 mM sodium chloride, 5 mM calcium chloride, 0.1% PEG 8000, pH 7.4. factor XIa enzymatic activity was determined by addition of the substrate glycine-proline-arginine-7-amido-4-trifluoromethylcoumarin (GPR-AFC) and measurement of the fluorescence at 400/505 nm after a 60 min incubation at 25° C. The % inhibition for each data point was calculated from the data and analyzed using the log (inhibitor) vs. response four parameters equation to determine the half-maximal inhibitory concentrations (IC50). The IC50 were converted to equilibrium inhibitory constants (Ki) using the Cheng-Prusoff equation.

Human plasma kallikrein = target: T1, Human plasma kallikrein (Homo sapiens, UniProt P03952); experiment: Plasma Kallikrein Assay; format: biochemical; conditions: purified Human plasma kallikrein 0.5 nM, substrate Acetyl-K-P-R-AFC, HEPES pH 7.4; read-out: PKal IC50
T1 construct: yields a heavy chain (371 amino acids) and a light chain (248 amino acids); The active site of plasma kallikrein is contained in the light chain; purchased Enzyme Research Laboratories
T1 sequence (P03952 391-638 limits assumed): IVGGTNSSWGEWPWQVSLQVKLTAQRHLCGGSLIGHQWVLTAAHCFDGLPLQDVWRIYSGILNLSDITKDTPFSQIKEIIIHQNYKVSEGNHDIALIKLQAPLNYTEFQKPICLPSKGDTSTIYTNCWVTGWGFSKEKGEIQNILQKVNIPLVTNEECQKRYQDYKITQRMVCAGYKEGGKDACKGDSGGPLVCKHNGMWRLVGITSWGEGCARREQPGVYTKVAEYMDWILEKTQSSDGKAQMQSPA
T1 sequence (P03952 20-390 partner limits assumed): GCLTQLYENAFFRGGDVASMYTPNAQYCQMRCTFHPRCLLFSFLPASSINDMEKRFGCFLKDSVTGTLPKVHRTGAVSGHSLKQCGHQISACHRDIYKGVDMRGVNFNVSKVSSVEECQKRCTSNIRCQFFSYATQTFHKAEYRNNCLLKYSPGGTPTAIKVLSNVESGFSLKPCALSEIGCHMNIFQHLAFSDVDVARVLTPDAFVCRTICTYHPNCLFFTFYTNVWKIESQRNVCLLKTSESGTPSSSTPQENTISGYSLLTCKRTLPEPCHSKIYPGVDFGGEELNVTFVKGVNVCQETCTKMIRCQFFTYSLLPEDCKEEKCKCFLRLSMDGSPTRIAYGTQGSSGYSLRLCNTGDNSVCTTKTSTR
Procedure: as §1, with “plasma kallikrein” for “Coagulation factor XIa”
Plasma kallikrein determinations were made in 50 mM HEPES buffer at pH 7.4 containing 150 mM NaCl, 5 mM CaCl2), and 0.1% PEG 8000 (polyethylene glycol; Fisher Scientific). Determinations were made using purified Human plasma kallikrein at a final concentration of 0.5 nM (Enzyme Research Laboratories) and the synthetic substrate, Acetyl-K—P—R-AFC (Sigma #C6608) at a concentration of […].
Times required to achieve equilibration between enzyme and inhibitor were determined in control experiments. […] IC50 was determined by inflection point from a four parameter logistic curve fit. Ki was calculated using the Cheng Prusoff equation, Ki=IC50/[…](1+([S]/Km)).

Chain of human factor XIa (P03951 388-625 limits assumed): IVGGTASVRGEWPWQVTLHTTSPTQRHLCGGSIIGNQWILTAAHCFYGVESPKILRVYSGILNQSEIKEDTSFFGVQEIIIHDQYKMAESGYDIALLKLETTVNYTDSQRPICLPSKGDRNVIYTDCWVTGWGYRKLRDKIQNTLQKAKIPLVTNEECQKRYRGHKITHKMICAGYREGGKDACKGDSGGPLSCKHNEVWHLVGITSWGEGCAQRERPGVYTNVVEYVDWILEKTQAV
Chain of human factor XIa (P03951 19-387 partner limits assumed): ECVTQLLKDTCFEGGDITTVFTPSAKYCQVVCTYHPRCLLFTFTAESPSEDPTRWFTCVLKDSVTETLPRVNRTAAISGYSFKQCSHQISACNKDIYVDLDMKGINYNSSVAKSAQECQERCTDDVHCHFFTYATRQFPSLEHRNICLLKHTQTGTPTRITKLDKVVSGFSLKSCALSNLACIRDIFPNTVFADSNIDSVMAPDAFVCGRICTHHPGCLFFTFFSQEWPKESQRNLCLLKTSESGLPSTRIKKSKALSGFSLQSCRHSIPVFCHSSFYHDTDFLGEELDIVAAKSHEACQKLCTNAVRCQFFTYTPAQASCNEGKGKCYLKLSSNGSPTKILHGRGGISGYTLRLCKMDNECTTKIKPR

| SMILES | IC50 (human factor XIa) [nM] | IC50 (Human plasma kallikrein) [nM] |
| --- | --- | --- |
| CC[C@@H](n1ncc(C(=O)N2CCC[C@@]3(C2)OC(=O)Nc2ccc(Cl)c(F)c23)c1N)C(F)(F)F (single isomer, unassigned) [Example 3] | 105 |  |
| Nc1c(C(=O)N2CCC[C@@]3(C2)OC(=O)Nc2ccc(Cl)c(F)c23)cnn1C1(C(F)(F)F)CC[C@@H]2C[C@@H]21 (single isomer, unassigned) [Example 56, (R)-1'-(5-Amino-1-((1S,2S or R,5R)-2-(trifluoromethyl)bicyclo[3.1.0]hexan-2-y1)-1H-pyrazole-4-carbonyl)-6-chloro-5-fluorospiro[benzo[d][1,3]oxazine-4,3'-piperidin]-2(1H)-one] | 932 | 2.9 |
| CC1(n2ncc(C(=O)N3CCC[C@@]4(C3)OC(=O)Nc3ccc(Cl)c(F)c34)c2N)CCS(=O)(=O)C1 (single isomer, unassigned) [Example 118, (R)-1'-(5-Amino-1-((R or S)-3-methyl-1,1-dioxidotetrahydrothiophen-3-y1)-1H-pyrazole-4-carbonyl)-6-chloro-5-fluorospiro[benzo[d][1,3]oxazine-4,3'-piperidin]-2(1H)-one] | 1000 | 24 |
| CC1(n2ncc(C(=O)N3CCC[C@@]4(C3)OC(=O)Nc3ccc(Cl)c(F)c34)c2N)CCS(=O)(=O)C1 (single isomer, unassigned) [Example 119] | 1460 | 21 |
| CC(n1ncc(C(=O)N2CCC[C@@]3(C2)OC(=O)Nc2ccc(Cl)c(F)c23)c1N)C(F)(F)F (single isomer, unassigned) [Example 120, (R)-1'-(5-Amino-1-((R or S)-1,1,1-trifluoropropan-2-y1)-1H-pyrazole-4-carbonyl)-6-chloro-5-fluorospiro[benzo[d][1,3]oxazine-4,3'-piperidin]-2(1H)-one] | 221 | 4.3 |
| CC(n1ncc(C(=O)N2CCC[C@@]3(C2)OC(=O)Nc2ccc(Cl)c(F)c23)c1N)C(F)(F)F (single isomer, unassigned) [Example 121, (R)-1'-(5-Amino-1-((S or R)-1,1,1-trifluoropropan-2-y1)-1H-pyrazole-4-carbonyl)-6-chloro-5-fluorospiro[benzo[d][1,3]oxazine-4,3'-piperidin]-2(1H)-one] | 591 | 4.9 |
| Nc1c(C(=O)N2CCC[C@@]3(C2)OC(=O)Nc2ccc(Cl)c(F)c23)cnn1-c1ccccc1 [Example 57, (R)-1'-(5-Amino-1-phenyl-1H-pyrazole-4-carbonyl)-6-chloro-5-fluorospiro[benzo[d][1,3]oxazine-4,3'-piperidin]-2(1H)-one] | 4140 |  |
| Nc1c(C(=O)N2CCC[C@@]3(C2)OC(=O)Nc2ccc(Cl)c(F)c23)cnn1-c1ccccc1OC(F)(F)F [Example 72, (R)-1'-(5-Amino-1-(2-(trifluoromethoxy)phenyl)-1H-pyrazole-4-carbonyl)-6-chloro-5-fluorospiro[benzo[d][1,3]oxazine-4,3'-piperidin]-2(1H)-one] | 262 |  |

The next lines start with the values.

| IC50 (human factor XIa) [nM] | IC50 (Human plasma kallikrein) [nM] | SMILES |
| --- | --- | --- |
| 9 |  | CC[C@H](n1ncc(C(=O)N2CCC[C@@]3(C2)OC(=O)Nc2ccc(Cl)c(F)c23)c1N)C(F)(F)F (single isomer, unassigned) [Example 4] |
| 62 | 2.2 | CCC(C1CCOCC1)n1ncc(C(=O)N2CCC[C@@]3(C2)OC(=O)Nc2ccc(Cl)c(F)c23)c1N (single isomer, unassigned) [Example 112, (R)-1'-(5-Amino-1-((R or S)-1-(tetrahydro-2H-pyran-4-yl)propyl)-1H-pyrazole-4-carbonyl)-6-chloro-5-fluorospiro[benzo[d][1,3]oxazine-4,3'-piperidin]-2(1H)-one] |
| 2 | 0.6 | CCC(C1CCOCC1)n1ncc(C(=O)N2CCC[C@@]3(C2)OC(=O)Nc2ccc(Cl)c(F)c23)c1N (single isomer, unassigned) [Example 113, (R)-1'-(5-Amino-1-((S or R)-1-(tetrahydro-2H-pyran-4-yl)propyl)-1H-pyrazole-4-carbonyl)-6-chloro-5-fluorospiro[benzo[d][1,3]oxazine-4,3'-piperidin]-2(1H)-one] |
| 103 | 2.8 | Nc1c(C(=O)N2CCC[C@@]3(C2)OC(=O)Nc2ccc(Cl)c(F)c23)cnn1C(C(F)(F)F)C1(F)CC1 (single isomer, unassigned) [Example 114, (R)-1'-(5-Amino-1-((R or S)-2,2,2-trifluoro-1-(1-fluorocyclopropyl)ethyl)-1H-pyrazole-4-carbonyl)-6-chloro-5-fluorospiro[benzo[d][1,3]oxazine-4,3'-piperidin]-2(1H)-one] |
| 42 | 0.6 | Nc1c(C(=O)N2CCC[C@@]3(C2)OC(=O)Nc2ccc(Cl)c(F)c23)cnn1C(C(F)(F)F)C1(F)CC1 (single isomer, unassigned) [Example 115, (R)-1'-(5-Amino-1-((S or R)-2,2,2-trifluoro-1-(1-fluorocyclopropyl)ethyl)-1H-pyrazole-4-carbonyl)-6-chloro-5-fluorospiro[benzo[d][1,3]oxazine-4,3'-piperidin]-2(1H)-one] |
| 4 | 0.7 | CCC(c1ccccc1)n1ncc(C(=O)N2CCC[C@@]3(C2)OC(=O)Nc2ccc(Cl)c(F)c23)c1N (single isomer, unassigned) [Example 116, (R)-1'-(5-Amino-1-((S or R)-1-phenylpropyl)-1H-pyrazole-4-carbonyl)-6-chloro-5-fluorospiro[benzo[d][1,3]oxazine-4,3'-piperidin]-2(1H)-one] |
| 30 | 0.9 | CCC(c1ccccc1)n1ncc(C(=O)N2CCC[C@@]3(C2)OC(=O)Nc2ccc(Cl)c(F)c23)c1N (single isomer, unassigned) [Example 117, (R)-1'-(5-Amino-1-((R or S)-1-phenylpropyl)-1H-pyrazole-4-carbonyl)-6-chloro-5-fluorospiro[benzo[d][1,3]oxazine-4,3'-piperidin]-2(1H)-one] |
| 95 | 1 | Nc1c(C(=O)N2CCC[C@@]3(C2)OC(=O)Nc2ccc(Cl)c(F)c23)cnn1C(c1ccccc1)C(F)(F)F (single isomer, unassigned) [Example 122, (R)-1'-(5-Amino-1-((R or S)-2,2,2-trifluoro-1-phenylethyl)-1H-pyrazole-4-carbonyl)-6-chloro-5-fluorospiro[benzo[d][1,3]oxazine-4,3'-piperidin]-2(1H)-one] |
| 74 | 0.9 | Nc1c(C(=O)N2CCC[C@@]3(C2)OC(=O)Nc2ccc(Cl)c(F)c23)cnn1C(c1ccccc1)C(F)(F)F (single isomer, unassigned) [Example 123] |
| 75 | 1.4 | Nc1c(C(=O)N2CCC[C@@]3(C2)OC(=O)Nc2ccc(Cl)c(F)c23)cnn1C(C1CC1)C(F)(F)F (single isomer, unassigned) [Example 124, (R)-1'-(5-Amino-1-((R or S)-1-cyclopropyl-2,2,2-trifluoroethyl)-1H-pyrazole-4-carbonyl)-6-chloro-5-fluorospiro[benzo[d][1,3]oxazine-4,3'-piperidin]-2(1H)-one] |
| 68 |  | Nc1c(C(=O)N2CCC[C@@]3(C2)OC(=O)Nc2ccc(Cl)c(F)c23)cnn1Cc1ccccc1 [Example 8, (R)-1'-(5-Amino-1-benzyl-1H-pyrazole-4-carbonyl)-6-chloro-5-fluorospiro[benzo[d][1,3]oxazine-4,3'-piperidin]-2(1H)-one] |
